# Molecular target: T1, human TGR5 (Homo sapiens, UniProt Q8TDU6)
# T1 construct: expressed in transfected cells; host or cells: HEK293
# T1 sequence (Q8TDU6 1-330): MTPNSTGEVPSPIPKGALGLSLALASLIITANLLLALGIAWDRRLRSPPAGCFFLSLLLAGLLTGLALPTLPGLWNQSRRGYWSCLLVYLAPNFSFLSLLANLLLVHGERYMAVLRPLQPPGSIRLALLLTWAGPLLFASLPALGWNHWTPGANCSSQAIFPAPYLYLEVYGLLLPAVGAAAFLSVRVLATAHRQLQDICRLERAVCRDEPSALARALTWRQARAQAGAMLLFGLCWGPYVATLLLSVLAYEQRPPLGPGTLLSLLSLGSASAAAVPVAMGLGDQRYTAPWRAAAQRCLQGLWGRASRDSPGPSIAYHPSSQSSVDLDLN
# Assay: Cell-based TGR5 assay (cAMP generation, HTRF)
# Conditions: HEK293 cells stably transfected with human TGR5; cAMP by HTRF; 30 minutes at 37° C.; read-out: pEC50 Human TGR5 (converted)
# Summary of the method: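 First, compounds in 3-fold serial dilution were placed in HBSS with 10 mM HEPES pH 7.4 and 0.5 mM IBMX. Next, human TGR5-expressing HEK293 cells were added and incubated 30 min at 37° C. Finally, cAMP was detected by HTRF and pEC50 derived by logistic fitting.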
row,Structure (SMILES),EC50 [nM]
1,"CN(CCSc1ccc(Cl)c(COC2(c3cnccc3-c3ccccc3OC3CC3)CC2)c1)C(=O)[C@@H](O)[C@@H](O)[C@H](O)[C@@H](O)CO [Compound I-555, (2S,3S,4R,5S)-N-(2-{[4-chloro-3-({1-[4-(2-cyclopropoxyphenyl)pyridin-3-yl]cyclopropoxy}methyl)phenyl]sulfanyl}ethyl)-2,3,4,5,6-pentahydroxy-N-methylhexanamide]",< 100
2,"C[C@H](CCCCNC(=O)NC[C@H](O)[C@@H](O)[C@H](O)[C@H](O)CO)c1ccc(Cl)c(COC2(c3cnccc3-c3ccccc3OC3CC3)CC2)c1 (single isomer, unassigned) [Compound I-273]",< 100
3,"O=C([C@@H](O)[C@@H](O)[C@H](O)[C@@H](O)CO)N(CCCCc1cc(Cl)c(COC2(c3cnccc3-c3ccccc3OC3CC3)CC2)cc1Cl)C1CCOCC1 [Compound I-216, (2S,3S,4R,5S)-N-{4-[2,5-dichloro-4-({1-[4-(2-cyclopropoxyphenyl)pyridin-3-yl]cyclopropoxy}methyl)phenyl]butyl}-2,3,4,5,6-pentahydroxy-N-(oxan-4-yl)hexanamide]",126 to 1000
4,"Cc1cc(COC2(c3cnccc3-c3ccccc3OC3CC3)CC2)c(Cl)cc1CCCCNC(=O)[C@@H](O)[C@@H](O)[C@H](O)[C@@H](O)CN1CCOCC1 (stereo in doubt) [Compound I-176, (2S,3S,4R,5S)-N-{4-[5-chloro-4-({1-[4-(2-cyclopropoxyphenyl)pyridin-3-yl]cyclopropoxy}methyl)-2-methylphenyl]butyl}-2,3,4,5-tetrahydroxy-6-(morpholin-4-yl)hexanamide]",< 100
5,"FC(F)(F)c1ccc(Cl)cc1CNC1(c2cnccc2-c2ccccc2OC2CC2)CC1 [Compound I-30, N-{[5-chloro-2-(trifluoromethyl)phenyl]methyl}-1-[4-(2-cyclopropoxyphenyl)pyridin-3-yl]cyclopropan-1-amine]",126 to 1000
6,"COCCCN(C[C@H](O)[C@@H](O)[C@H](O)[C@H](O)CO)C(=O)CCCC(C)c1ccc(C)c(CNC2(c3cnccc3-c3ccccc3OC3CC3)CC2)c1 (stereo partly drawn) [Compound I-362, 5-{3-[({1-[4-(2-cyclopropoxyphenyl)pyridin-3-yl]cyclopropyl}amino)methyl]-4-methylphenyl}-N-(3-methoxypropyl)-N-[(2S,3R,4R,5R)-2,3,4,5,6-pentahydroxyhexyl]hexanamide]",< 100
7,"O=C(NC[C@H](O)[C@@H](O)[C@H](O)[C@H](O)CO)N[C@@H](CCCCNS(=O)(=O)c1ccc(COC2(c3cnccc3-c3ccccc3OC3CC3)CC2)c(Cl)c1)C(=O)O [Compound I-485, (S)-6-(3-chloro-4-((1-(4-(2-cyclopropoxyphenyl)pyridine-3-yl)cyclopropoxy)methyl)phenylsulfonamido)-2-(3-((2S,3R,4R,5R)-2,3,4,5,6-pentahydroxyhexyl)ureido) hexanoic acid]",< 100
8,"CCNC(=O)[C@@H](CCCCNS(=O)(=O)c1ccc(Cl)c(COC2(c3cnccc3-c3ccccc3OC3CC3)CC2)c1)NC(=O)NC[C@H](O)[C@@H](O)[C@H](O)[C@H](O)CO [Compound I-482, (2R)-6-[4-chloro-3-({1-[4-(2-cyclopropoxyphenyl)pyridin-3-yl]cyclopropoxy}methyl)benzenesulfonamido]-N-ethyl-2-({[(2S,3R,4R,5R)-2,3,4,5,6-pentahydroxyhexyl]carbamoyl}amino)hexanamide]",126 to 1000
9,"CN(CCCCCNC(=O)N[C@@H](CO)[C@@H](O)[C@H](O)[C@H](O)CO)S(=O)(=O)c1ccc(Cl)c(COC2(c3cnccc3-c3ccccc3OC3CC3)CC2)c1 (stereo in doubt) [Compound I-405, 1-{5-[N-methyl4-chloro-3-({1-[4-(2-cyclopropoxyphenyl)pyridin-3-yl]cyclopropoxy}methyl)benzenesulfonamido]pentyl}-3-[(2S,3R,4S,5R)-1,3,4,5,6-pentahydroxyhexan-2-yl]urea]",< 100
10,"O=C(NC[C@H](O)[C@@H](O)[C@H](O)[C@H](O)CO)N[C@H]1CC[C@@H](NS(=O)(=O)c2ccc(Cl)c(COC3(c4cnccc4-c4ccccc4OC4CC4)CC3)c2)CC1 [Compound I-419, 3-[(2S,3R,4R,5R)-2,3,4,5,6-pentahydroxyhexyl]-1-[(1s,4s)-4-[4-chloro-3-({1-[4-(2-cyclopropoxyphenyl)pyridin-3-yl]cyclopropoxy}methyl)benzenesulfonamido]cyclohexyl]urea]",< 100
11,"Cc1cc(CNC2(c3cnccc3-c3ccccc3OC3CC3)CC2)c(Cl)cc1CCCCNC(=O)NC[C@H](O)[C@@H](O)[C@H](O)[C@H](O)CO (stereo in doubt) [Compound I-151, 1-(4-{5-chloro-4-[({1-[4-(2-cyclopropoxyphenyl)pyridin-3-yl]cyclopropyl}amino)methyl]-2-methylphenyl}butyl)-3-[(2S,3R,4R,5R)-2,3,4,5,6-pentahydroxyhexyl]urea]",126 to 1000
12,"O=C(CCC1CCN(S(=O)(=O)c2ccc(Cl)c(COC3(c4cnccc4-c4ccccc4OC4CC4)CC3)c2)CC1)NC[C@H](O)[C@@H](O)[C@H](O)[C@H](O)CO [Compound I-449, 3-{1-[4-chloro-3-({1-[4-(2-cyclopropoxyphenyl)pyridin-3-yl]cyclopropoxy}methyl)benzenesulfonyl]piperidin-4-yl}-N-[(2S,3R,4R,5R)-2,3,4,5,6-pentahydroxyhexyl]propanamide]",< 100
13,"C[C@H](O)CN(CCCCc1cc(Cl)c(COC2(c3cnccc3-c3ccccc3OC3CC3)CC2)cc1Cl)C(=O)[C@@H](O)[C@@H](O)[C@H](O)[C@@H](O)CO [Compound I-215, (2S,3S,4R,5S)-N-{4-[2,5-dichloro-4-({1-[4-(2-cyclopropoxyphenyl)pyridin-3-yl]cyclopropoxy}methyl)phenyl]butyl}-2,3,4,5,6-pentahydroxy-N-[(2S)-2-hydroxypropyl]hexanamide]",< 100
14,"O=C(NCCCCSc1ccc(Cl)c(COC2(c3cnccc3-c3ccccc3OC3CC3)CC2)c1)N[C@H]1CC[C@@H](NC(=O)NC[C@H](O)[C@@H](O)[C@H](O)[C@H](O)CO)CC1 [Compound I-635, 1-(4-{[4-chloro-3-({1-[4-(2-cyclopropoxyphenyl)pyridin-3-yl]cyclopropoxy}methyl)phenyl]sulfanyl}butyl)-3-[(1s,4s)-4-({[(2S,3R,4R,5R)-2,3,4,5,6-pentahydroxyhexyl]carbamoyl}amino)cyclohexyl]urea]",< 100
15,"O=C(NCCCCCSc1ccc(Cl)c(COC2(c3cnccc3-c3ccccc3OC3CC3)CC2)c1)[C@@H](O)[C@@H](O)[C@H](O)[C@@H](O)CO [Compound I-611, (2S,3S,4R,5S)-N-(5-{[4-chloro-3-({1-[4-(2-cyclopropoxyphenyl)pyridin-3-yl]cyclopropoxy}methyl)phenyl]sulfanyl}pentyl)-2,3,4,5,6-pentahydroxyhexanamide]",< 100
16,"COCCNC(=O)N(CCCCc1cc(Cl)c(COC2(c3cnccc3-c3ccccc3OC3CC3)CC2)cc1Cl)C[C@H](O)[C@@H](O)[C@H](O)[C@H](O)CO [Compound I-76, 1-{4-[2,5-dichloro-4-({1-[4-(2-cyclopropoxyphenyl)pyridin-3-yl]cyclopropoxy}methyl)phenyl]butyl}-3-(2-methoxyethyl)-1-[(2S,3R,4R,5R)-2,3,4,5,6-pentahydroxyhexyl]urea]",126 to 1000
17,"COCCCN(C[C@H](O)[C@@H](O)[C@H](O)[C@H](O)CO)C(=O)CCCC(C)c1ccc(Cl)c(CNC2(c3cnccc3-c3ccccc3OC3CC3)CC2)c1 (stereo partly drawn) [Compound I-338, 5-{4-chloro-3-[({11-[4-(2-cyclopropoxyphenyl)pyridin-3-yl]cyclopropyl}amino)methyl]phenyl}-N-(3-methoxypropyl)-N-[(2S,3R,4R,5R)-2,3,4,5,6-pentahydroxyhexyl]hexanamide]",< 100
18,"C[C@H](CCCCNC(=O)N[C@@H](CO)[C@@H](O)[C@H](O)[C@H](O)CO)c1ccc(Cl)c(COC2(c3cnccc3-c3ccccc3OC3CC3)CC2)c1 (single isomer, unassigned) [Compound I-264]",< 100
19,"O=C([C@@H](O)[C@@H](O)[C@H](O)[C@@H](O)CO)N(CCCCSc1ccc(Cl)c(CNC2(c3cnccc3-c3ccccc3OC3CC3)CC2)c1)CC1CCOCC1 [Compound I-536, (2S,3S,4R,5S)-N-[4-({4-chloro-3-[({1-[4-(2-cyclopropoxyphenyl)pyridin-3-yl]cyclopropyl}amino)methyl]phenyl}sulfanyl)butyl]-2,3,4,5,6-pentahydroxy-N-(oxan-4-ylmethyl)hexanamide]",126 to 1000
20,"Clc1ccc(CNC2(c3cnccc3-c3ccccc3OC3CC3)CC2)c(Cl)c1 [Compound I-28, 1-[4-(2-cyclopropoxyphenyl)pyridin-3-yl]-N-[(2,4-dichlorophenyl)methyl]cyclopropan-1-amine]",126 to 1000
21,"CC(=O)N(CCSc1ccc(Cl)c(CNC2(c3cnccc3-c3ccccc3OC3CC3)CC2)c1)C[C@H](O)[C@@H](O)[C@H](O)[C@H](O)CO [Compound I-504, N-[2-({4-chloro-3-[({1-[4-(2-cyclopropoxyphenyl)pyridin-3-yl]cyclopropyl}amino)methyl]phenyl}sulfanyl)ethyl]-N-[(2S,3R,4R,5R)-2,3,4,5,6-pentahydroxyhexyl]acetamide]",126 to 1000
22,"CCS(=O)(=O)CCN(CCCC(C)c1ccc(C)c(CNC2(c3cnccc3-c3ccccc3OC3CC3)CC2)c1)C(=O)[C@@H](O)[C@@H](O)[C@H](O)[C@@H](O)CO (stereo partly drawn) [Compound I-307, (2S,3S,4R,5S)-N-(4-{3-[({1-[4-(2-cyclopropoxyphenyl)pyridin-3-yl]cyclopropyl}amino)methyl]-4-methylphenyl}pentyl)-N-[2-(ethanesulfonyl)ethyl]-2,3,4,5,6-pentahydroxyhexanamide]",< 100

# Source: patent publication US12084472B2 (Ardelyx, Inc., priority 2015, dated 2024)
